Tested on: female NMRI mice
Assay: Anorectic effect: cumulative condensed milk consumption after oral administration
Type: in vivo
Settings: food withdrawn 24 hours, oral dose 50 mg/kg by gavage
Procedure: The anorectic effect was tested on female NMRI mice. After withdrawal of food for 24 hours, the test product was administered by gavage. The animals were housed singly with free access to drinking water and were offered condensed milk 30 minutes after administration of the product. The condensed milk consumption was determined every half hour for 7 hours, and the general wellbeing of the animals was observed. The measured milk consumption was compared with the vehicle-treated control animals.

Question: Which results are given for `COc1ccc(Cl)cc1S(=O)(=O)N1CCC(=O)N2C(Cc3ccc(Cl)cc3)C(=O)N(C(C)C)CC21` (centres unmarked) [Example 2, 6-(4-Chlorobenzyl)-1-(5-chloro-2-methoxybenzenesulfonyl)-8-isopropylhexahydropyrazino[1,2-a]pyrimidine-4,7-dione]?
Answer: Reduction in the cumulative milk consumption as % of the control (milk consumption over 7 hours): 11 % of the control; cumulative milk consumption of the treated animals (over 7 hours, N=10, control animals 5.48 ml): 10/4.90 ml

From patent US7750005B2, “Substituted hexahydropyrazino [1,2-A] pyrimidine-4,7-dione derivatives, process for their preparation and their use as medicaments” (Sanofi-Aventis Deutschland GmbH, priority 2003, dated 2010)
